Values quoted from earlier work as cited in US20070203026A1, “Methods for controlling bermudagrass, bermudagrass hybrids and other weedy monocot and dicot species” (TurfEcosystems, LLC, priority 2006, published 2007).

Experiments:
[1] = system: bermudagrass; settings: saturated soil paste extract data
[2] = system: perennial ryegrass; settings: saturated soil paste extract data
[3] = system: tall fescue; settings: saturated soil paste extract data
[4] = system: seashore paspalum; settings: ocean level chlorides
[5] = system: fairway crested wheatgrass; settings: saturated soil paste extract data
[6] = system: crested wheatgrass; settings: saturated soil paste extract data

In the case of `Cl` [chloride], the “maximum soil chloride concentration threshold” value [1] is listed as “about 2450 ppm”, the “maximum soil chloride concentration threshold” value [2] is listed as “about 1025 ppm” and the “maximum soil chloride concentration threshold” value [3] is listed as “about 1400 ppm”. For the same compound, the “chlorides withstood (salinity tolerance)” value [4] was ~19,000 ppm, the “maximum soil chloride concentration threshold” value [5] was “about 2625 ppm” and the “maximum soil chloride concentration threshold” value [6] was “about 1050 ppm”.
